Experimental data as given in ChEMBL document CHEMBL5512688 (J Med Chem, 2024).

Biological target: T1, Wee1-like protein kinase (Homo sapiens, UniProt P30291)
Test: Inhibition of human Wee1 (215 to 647 residues) using polyornithine/tyrosine (4:1) as substrate incubated for 5 mins in presence of ATP by micro beta plate reader analysis
Settings: not given

T1 sequence (P30291 whole entry, the tested form may be a part): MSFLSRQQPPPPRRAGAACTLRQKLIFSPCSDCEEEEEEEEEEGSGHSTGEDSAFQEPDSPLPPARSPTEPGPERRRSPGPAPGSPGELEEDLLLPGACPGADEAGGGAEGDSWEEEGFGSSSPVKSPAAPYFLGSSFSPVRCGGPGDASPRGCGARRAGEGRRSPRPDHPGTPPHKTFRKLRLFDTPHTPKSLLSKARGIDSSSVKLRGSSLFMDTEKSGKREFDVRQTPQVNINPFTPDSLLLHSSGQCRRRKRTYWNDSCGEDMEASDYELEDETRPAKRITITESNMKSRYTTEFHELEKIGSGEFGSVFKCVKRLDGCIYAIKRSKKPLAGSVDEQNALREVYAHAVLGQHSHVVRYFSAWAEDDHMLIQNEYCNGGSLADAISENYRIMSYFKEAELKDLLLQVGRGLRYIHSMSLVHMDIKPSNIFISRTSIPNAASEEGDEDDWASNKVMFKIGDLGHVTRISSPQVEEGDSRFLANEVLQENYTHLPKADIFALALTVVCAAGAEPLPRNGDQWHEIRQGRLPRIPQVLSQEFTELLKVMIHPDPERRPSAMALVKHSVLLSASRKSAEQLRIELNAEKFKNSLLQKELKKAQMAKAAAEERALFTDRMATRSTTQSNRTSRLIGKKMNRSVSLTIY

SMILES	IC50
C=CCn1c(=O)c2cnc(Nc3ccc(N4CCC(N5CCN(C)CC5)CC4)cc3)nc2n1-c1cccc(-c2cnccn2)n1	2 nM
C=CCn1c(=O)c2cnc(Nc3ccc(N4CCN(CC)CC4)cc3)nc2n1-c1cccc(-c2cnccn2)n1	1.6 nM
C=CCn1c(=O)c2cnc(Nc3ccc(N4[C@@H]5CC[C@H]4CN(C)C5)cc3)nc2n1-c1cccc(-c2ncccn2)n1	26 nM

System: A-427
Test: Antiproliferative activity against human A-427 cells assessed as inhibition of cell growth incubated for 72 hrs by CCK-8 assay
Assay type: functional, cell-based
Settings: A-427, 72 h

SMILES	IC50
C=CCn1c(=O)c2cnc(Nc3ccc(N4CCC(N5CCN(C)CC5)CC4)cc3)nc2n1-c1cccc(-c2cnccn2)n1	192 nM
C=CCn1c(=O)c2cnc(Nc3ccc(N4CCN(CC)CC4)cc3)nc2n1-c1cccc(-c2cnccn2)n1	88 nM
C=CCn1c(=O)c2cnc(Nc3ccc(N4[C@@H]5CC[C@H]4CN(C)C5)cc3)nc2n1-c1cccc(-c2ncccn2)n1	115 nM

System: not listed separately
Test: Metabolic stability in human liver microsome assessed as parent compound remaining measured at 60 mins by LCMS/MS analysis
Assay type: ADME
Settings: liver microsomes, read-out: Stability

SMILES	remaining at 1 h
C=CCn1c(=O)c2cnc(Nc3ccc(N4CCC(N5CCN(C)CC5)CC4)cc3)nc2n1-c1cccc(-c2cnccn2)n1	76.3%
C=CCn1c(=O)c2cnc(Nc3ccc(N4CCN(CC)CC4)cc3)nc2n1-c1cccc(-c2cnccn2)n1	65.2%
C=CCn1c(=O)c2cnc(Nc3ccc(N4[C@@H]5CC[C@H]4CN(C)C5)cc3)nc2n1-c1cccc(-c2ncccn2)n1	64.2%

System: not listed separately
Test: Metabolic stability in mouse liver microsome assessed as parent compound remaining measured at 60 mins by LCMS/MS analysis
Assay type: ADME
Settings: liver microsomes, read-out: Stability

SMILES	remaining at 1 h
C=CCn1c(=O)c2cnc(Nc3ccc(N4CCC(N5CCN(C)CC5)CC4)cc3)nc2n1-c1cccc(-c2cnccn2)n1	78.5%
C=CCn1c(=O)c2cnc(Nc3ccc(N4CCN(CC)CC4)cc3)nc2n1-c1cccc(-c2cnccn2)n1	18%
C=CCn1c(=O)c2cnc(Nc3ccc(N4[C@@H]5CC[C@H]4CN(C)C5)cc3)nc2n1-c1cccc(-c2ncccn2)n1	82.3%

System: not listed separately
Test: AUC (0 to 24 hrs) in ICR mouse at 1 mg/kg, iv measured upto 24 hrs by LC-MS/MS analysis
Assay type: ADME, organism-based
Settings: in vivo

SMILES	AUC(0-t) at 24 h
C=CCn1c(=O)c2cnc(Nc3ccc(N4CCC(N5CCN(C)CC5)CC4)cc3)nc2n1-c1cccc(-c2cnccn2)n1	699 ng·h/mL
C=CCn1c(=O)c2cnc(Nc3ccc(N4CCN(CC)CC4)cc3)nc2n1-c1cccc(-c2cnccn2)n1	151 ng·h/mL
C=CCn1c(=O)c2cnc(Nc3ccc(N4[C@@H]5CC[C@H]4CN(C)C5)cc3)nc2n1-c1cccc(-c2ncccn2)n1	124 ng·h/mL

System: not listed separately
Test: Half life in ICR mouse at 1 mg/kg, iv measured upto 24 hrs by LC-MS/MS analysis
Assay type: ADME, organism-based
Settings: in vivo

SMILES	half-life
C=CCn1c(=O)c2cnc(Nc3ccc(N4CCC(N5CCN(C)CC5)CC4)cc3)nc2n1-c1cccc(-c2cnccn2)n1	2.55 h
C=CCn1c(=O)c2cnc(Nc3ccc(N4CCN(CC)CC4)cc3)nc2n1-c1cccc(-c2cnccn2)n1	0.8 h
C=CCn1c(=O)c2cnc(Nc3ccc(N4[C@@H]5CC[C@H]4CN(C)C5)cc3)nc2n1-c1cccc(-c2ncccn2)n1	1.38 h

System: not listed separately
Test: Volume of distribution in ICR mouse at 1 mg/kg, iv measured upto 24 hrs by LC-MS/MS analysis
Assay type: ADME, organism-based
Settings: in vivo

SMILES	Vd
C=CCn1c(=O)c2cnc(Nc3ccc(N4CCC(N5CCN(C)CC5)CC4)cc3)nc2n1-c1cccc(-c2cnccn2)n1	5.6 L/kg
C=CCn1c(=O)c2cnc(Nc3ccc(N4CCN(CC)CC4)cc3)nc2n1-c1cccc(-c2cnccn2)n1	7.4 L/kg
C=CCn1c(=O)c2cnc(Nc3ccc(N4[C@@H]5CC[C@H]4CN(C)C5)cc3)nc2n1-c1cccc(-c2ncccn2)n1	13.4 L/kg

System: not listed separately
Test: Clearance in ICR mouse at 1 mg/kg, iv measured upto 24 hrs by LC-MS/MS analysis
Assay type: ADME, organism-based
Settings: in vivo

SMILES	clearance
C=CCn1c(=O)c2cnc(Nc3ccc(N4CCC(N5CCN(C)CC5)CC4)cc3)nc2n1-c1cccc(-c2cnccn2)n1	23.8 mL/min/kg
C=CCn1c(=O)c2cnc(Nc3ccc(N4CCN(CC)CC4)cc3)nc2n1-c1cccc(-c2cnccn2)n1	108 mL/min/kg
C=CCn1c(=O)c2cnc(Nc3ccc(N4[C@@H]5CC[C@H]4CN(C)C5)cc3)nc2n1-c1cccc(-c2ncccn2)n1	128 mL/min/kg

System: not listed separately
Test: AUC (0 to 24 hrs) in ICR mouse at 60 mg/kg, IG measured upto 24 hrs by LC-MS/MS analysis
Assay type: ADME, organism-based
Settings: in vivo, po

SMILES	AUC(0-t) at 24 h
C=CCn1c(=O)c2cnc(Nc3ccc(N4CCC(N5CCN(C)CC5)CC4)cc3)nc2n1-c1cccc(-c2cnccn2)n1	20300 ng·h/mL
C=CCn1c(=O)c2cnc(Nc3ccc(N4CCN(CC)CC4)cc3)nc2n1-c1cccc(-c2cnccn2)n1	4200 ng·h/mL
C=CCn1c(=O)c2cnc(Nc3ccc(N4[C@@H]5CC[C@H]4CN(C)C5)cc3)nc2n1-c1cccc(-c2ncccn2)n1	6810 ng·h/mL

System: not listed separately
Test: Half life in ICR mouse at 60 mg/kg, IG measured upto 24 hrs by LC-MS/MS analysis
Assay type: ADME, organism-based
Settings: in vivo, po

SMILES	half-life
C=CCn1c(=O)c2cnc(Nc3ccc(N4[C@@H]5CC[C@H]4CN(C)C5)cc3)nc2n1-c1cccc(-c2ncccn2)n1	2.97 h

System: not listed separately
Test: Bioavailability in ICR mouse at 60 mg/kg, IG measured upto 24 hrs by LC-MS/MS analysis
Assay type: ADME, organism-based
Settings: in vivo, po

SMILES	bioavailability
C=CCn1c(=O)c2cnc(Nc3ccc(N4CCC(N5CCN(C)CC5)CC4)cc3)nc2n1-c1cccc(-c2cnccn2)n1	48.5%
C=CCn1c(=O)c2cnc(Nc3ccc(N4CCN(CC)CC4)cc3)nc2n1-c1cccc(-c2cnccn2)n1	46.5%
C=CCn1c(=O)c2cnc(Nc3ccc(N4[C@@H]5CC[C@H]4CN(C)C5)cc3)nc2n1-c1cccc(-c2ncccn2)n1	91.3%

System: LoVo
Test: Antiproliferative activity against human LoVo cells assessed as inhibition of cell growth incubated for 72 hrs by CCK-8 method
Assay type: functional, cell-based
Settings: not given

SMILES	IC50
C=CCn1c(=O)c2cnc(Nc3ccc(N4CCC(N5CCN(C)CC5)CC4)cc3)nc2n1-c1cccc(-c2cnccn2)n1	166 nM
C=CCn1c(=O)c2cnc(Nc3ccc(N4CCN(CC)CC4)cc3)nc2n1-c1cccc(-c2cnccn2)n1	92 nM
C=CCn1c(=O)c2cnc(Nc3ccc(N4[C@@H]5CC[C@H]4CN(C)C5)cc3)nc2n1-c1cccc(-c2ncccn2)n1	243 nM

Biological target: T1, Wee1-like protein kinase
Test: Inhibition of Wee1 in human U2OS cells assessed as reduction in CDK1 phosphorylation measured for 1 hr by Western blot analysis
Assay type: cell-based
Settings: not given

SMILES	IC50
C=CCn1c(=O)c2cnc(Nc3ccc(N4CCC(N5CCN(C)CC5)CC4)cc3)nc2n1-c1cccc(-c2cnccn2)n1	401 nM
C=CCn1c(=O)c2cnc(Nc3ccc(N4CCN(CC)CC4)cc3)nc2n1-c1cccc(-c2cnccn2)n1	341 nM
C=CCn1c(=O)c2cnc(Nc3ccc(N4[C@@H]5CC[C@H]4CN(C)C5)cc3)nc2n1-c1cccc(-c2ncccn2)n1	166 nM

System: LoVo
Test: Antitumor activity against human LoVo cells xenografted in female BALB/c nude mouse assessed as tumor growth inhibition at 60 mg/kg, IG administered once daily for 27 days
Assay type: functional
Settings: po, 648 h, time 27 day, read-out: TGI

SMILES	inhibition in vivo at 60 mg/kg
C=CCn1c(=O)c2cnc(Nc3ccc(N4CCC(N5CCN(C)CC5)CC4)cc3)nc2n1-c1cccc(-c2cnccn2)n1	58%
C=CCn1c(=O)c2cnc(Nc3ccc(N4CCN(CC)CC4)cc3)nc2n1-c1cccc(-c2cnccn2)n1	69%
C=CCn1c(=O)c2cnc(Nc3ccc(N4[C@@H]5CC[C@H]4CN(C)C5)cc3)nc2n1-c1cccc(-c2ncccn2)n1	53%

System: not listed separately
Test: Toxicity in female BALB/c nude mouse xenografted with human LoVo cells assessed as body weight loss at 60 mg/kg, IG administered once daily for 27 days
Assay type: organism-based
Settings: in vivo, po, 648 h, time 27 day

SMILES	Activity
C=CCn1c(=O)c2cnc(Nc3ccc(N4CCN(CC)CC4)cc3)nc2n1-c1cccc(-c2cnccn2)n1	Toxic
